Reference: patent US4450269A, “Mono-5-substituted-3-chloro-4H-1,2,6-thiadiazin-4-one antifungal agents” (FMC Corporation, priority 1980, dated 1984)

Assays:
Experiment in all cases: Spore germination test
Type in all cases: cell-based
Uromyces phaseoli = conditions: UP, 48 hours
Summary of the method: (§1)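 Compound in acetone was mixed into water agar at final 40, 10, 2.5 and 1 ppm and poured into quadrant dishes. Quadrants received spore suspension, while Erysiphe polygoni and Uromyces phaseoli spores were brushed on from infected leaves. After 48 h at 24 °C, the percentage of germinated spores was converted to a germination rating.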

Botrytis cinerea = conditions: BC, 48 hours
Summary of the method: as §1

Erysiphe polygoni = conditions: EP, 48 hours
Summary of the method: as §1

Structure (SMILES)	Spore Germination Rating (Uromyces phaseoli; 1.0 ppm)	Spore Germination Rating (Uromyces phaseoli; 2.5 ppm)	Spore Germination Rating (Uromyces phaseoli; 10 ppm)	Spore Germination Rating (Uromyces phaseoli; 40 ppm)	Spore Germination Rating (Botrytis cinerea; 1.0 ppm)	Spore Germination Rating (Botrytis cinerea; 2.5 ppm)	Spore Germination Rating (Botrytis cinerea; 10 ppm)	Spore Germination Rating (Botrytis cinerea; 40 ppm)	Spore Germination Rating (Erysiphe polygoni; 1.0 ppm)	Spore Germination Rating (Erysiphe polygoni; 2.5 ppm)	Spore Germination Rating (Erysiphe polygoni; 10 ppm)	Spore Germination Rating (Erysiphe polygoni; 40 ppm)
O=c1c(Cl)nsnc1Oc1ccc([N+](=O)[O-])cc1 [Compound 9, 3-chloro-5-(4-nitrophenoxy)-4H--1,2,6-thiadiazin-4-one]	0 (0-10)	0 (0-10)	0 (0-10)	0 (0-10)	0 (0-10)	0 (0-10)	0 (0-10)	0 (0-10)	4 (80-100)	4 (80-100)	4 (80-100)	4 (80-100)
Cc1cc(Cl)ccc1Oc1nsnc(Cl)c1=O [Compound 55, 3-chloro-5-(4-chloro-2-methylphenoxy)-4H--1,2,6-thiadiazin-4-one]	0 (0-10)	0 (0-10)	0 (0-10)	0 (0-10)	4 (80-100)	3 (60-80)	1 (10-40)	1 (10-40)	1 (10-40)	0 (0-10)	0 (0-10)	1 (10-40)
O=c1c(Cl)nsnc1Oc1cccc2ccccc12 [Compound 32, 3-chloro-5(1-naphthoxy)-4H-1,2,6-thiadiazin-4-one]	3 (60-80)	0 (0-10)	0 (0-10)	0 (0-10)	2 (40-60)	0 (0-10)	0 (0-10)	0 (0-10)	2 (40-60)	2 (40-60)	0 (0-10)	0 (0-10)
Cc1cc(C)cc(Oc2nsnc(Cl)c2=O)c1 [Compound 25, 3-chloro-5-(3,5-dimethylphenoxy)-4H--1,2,6-thiadiazin-4-one]	4 (80-100)	2 (40-60)	1 (10-40)	0 (0-10)	2 (40-60)	1 (10-40)	0 (0-10)	0 (0-10)	4 (80-100)	4 (80-100)	0 (0-10)	0 (0-10)
O=c1c(Cl)nsnc1Oc1cccc(Cl)c1 [Compound 13, 3-chloro-5-(3-chlorophenoxy)-4H--1,2,6-thiadiazin-4-one]	0 (0-10)	0 (0-10)	0 (0-10)	0 (0-10)	4 (80-100)	4 (80-100)	0 (0-10)	0 (0-10)	4 (80-100)	2 (40-60)	0 (0-10)	0 (0-10)
O=C(O)Cc1ccccc1Oc1nsnc(Cl)c1=O [Compound 45, 3-(2-carboxymethylphenoxy)-5-chloro-4H--1,2,6-thiadiazin-4-one]	4 (80-100)	4 (80-100)	4 (80-100)	2 (40-60)	4 (80-100)	4 (80-100)	4 (80-100)	2 (40-60)	4 (80-100)	4 (80-100)	4 (80-100)	2 (40-60)
CSc1ccc(Oc2nsnc(Cl)c2=O)cc1 [Compound 39, 3-chloro-5-[(4-methylthio)phenoxy]-4H-1,2,6,-thiadiazin-4-one]	2 (40-60)	2 (40-60)	2 (40-60)	0 (0-10)	4 (80-100)	4 (80-100)	4 (80-100)	3 (60-80)	2 (40-60)	1 (10-40)	2 (40-60)	0 (0-10)
O=c1c(Cl)nsnc1Oc1ccc(F)cc1 [Compound 11, 3-chloro-5-(4-fluorophenoxy)-4H--1,2,6-thiadiazin-4-one]	4 (80-100)	0 (0-10)	0 (0-10)	0 (0-10)	4 (80-100)	1 (10-40)	0 (0-10)	0 (0-10)	0 (0-10)	0 (0-10)	0 (0-10)	0 (0-10)
Cc1cc(Oc2nsnc(Cl)c2=O)ccc1Cl [Compound 54, 3-chloro-5-(4-chloro-3-methylphenoxy)-4H--1,2,6-thiadiazin-4-one]	0 (0-10)	0 (0-10)	0 (0-10)	0 (0-10)	4 (80-100)	4 (80-100)	2 (40-60)	1 (10-40)	2 (40-60)	0 (0-10)	0 (0-10)	0 (0-10)
